The target of this assay is T1, F508delCFTR (Homo sapiens, UniProt P13569, DEL508-508).
T1 construct: expressed in transfected cells; host or cells: CFBE41o- human lung derived epithelial cells (CFBE41o-F508delCFTR-HRP), doxycycline-inducible
Briefly: Cell Surface Expression-Horse Radish Peroxidase (CSE-HRP) Assay.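 For EC50 (with co-corrector): co-corrector chromenyl benzoic acid corrector at 2 or 3 µM.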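 For Maximum % activity (without co-corrector): % of on-plate positive control chromenyl benzoic acid corrector at 2 or 3 µM.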 The assay is classed as cell-based. As to conditions: for Maximum % activity (with co-corrector) / Emax: maximum at any tested concentration; for Emax: read-out: Maximum % activity (without co-corrector). The procedure, abridged:
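Corrector compounds were given as 8-point 3-fold series from 20 or 30 μM, with or without a 2 μM co-corrector, for 18-24 h at 33 °C. Surface HRP was read by luminol luminescence as % of positive control; variable-Hill-slope sigmoidal fitting gave EC50 from triplicate plates.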

The mark [1] stands for this setting: test compound alone, without co-corrector, read-out: EC50 (without co-corrector).
Where [2] appears, read: with co-corrector, read-out: EC50 (with co-corrector).
Where [3] appears, read: test compound with co-corrector.
Where [4] appears, read: test compound without co-corrector.
Setting [5] is: test compound with co-corrector, read-out: EC50 (with co-corrector).
The mark [6] stands for this setting: test compound without co-corrector, read-out: EC50 (without co-corrector).

Structures are written as SMILES. Where two headings read alike, the source gives them in different places. Marks after values point to notes of the source that are not given here. Bounds are passed on as bounds.

T1 sequence (P13569 with tags, fused parts or gaps DEL508-508): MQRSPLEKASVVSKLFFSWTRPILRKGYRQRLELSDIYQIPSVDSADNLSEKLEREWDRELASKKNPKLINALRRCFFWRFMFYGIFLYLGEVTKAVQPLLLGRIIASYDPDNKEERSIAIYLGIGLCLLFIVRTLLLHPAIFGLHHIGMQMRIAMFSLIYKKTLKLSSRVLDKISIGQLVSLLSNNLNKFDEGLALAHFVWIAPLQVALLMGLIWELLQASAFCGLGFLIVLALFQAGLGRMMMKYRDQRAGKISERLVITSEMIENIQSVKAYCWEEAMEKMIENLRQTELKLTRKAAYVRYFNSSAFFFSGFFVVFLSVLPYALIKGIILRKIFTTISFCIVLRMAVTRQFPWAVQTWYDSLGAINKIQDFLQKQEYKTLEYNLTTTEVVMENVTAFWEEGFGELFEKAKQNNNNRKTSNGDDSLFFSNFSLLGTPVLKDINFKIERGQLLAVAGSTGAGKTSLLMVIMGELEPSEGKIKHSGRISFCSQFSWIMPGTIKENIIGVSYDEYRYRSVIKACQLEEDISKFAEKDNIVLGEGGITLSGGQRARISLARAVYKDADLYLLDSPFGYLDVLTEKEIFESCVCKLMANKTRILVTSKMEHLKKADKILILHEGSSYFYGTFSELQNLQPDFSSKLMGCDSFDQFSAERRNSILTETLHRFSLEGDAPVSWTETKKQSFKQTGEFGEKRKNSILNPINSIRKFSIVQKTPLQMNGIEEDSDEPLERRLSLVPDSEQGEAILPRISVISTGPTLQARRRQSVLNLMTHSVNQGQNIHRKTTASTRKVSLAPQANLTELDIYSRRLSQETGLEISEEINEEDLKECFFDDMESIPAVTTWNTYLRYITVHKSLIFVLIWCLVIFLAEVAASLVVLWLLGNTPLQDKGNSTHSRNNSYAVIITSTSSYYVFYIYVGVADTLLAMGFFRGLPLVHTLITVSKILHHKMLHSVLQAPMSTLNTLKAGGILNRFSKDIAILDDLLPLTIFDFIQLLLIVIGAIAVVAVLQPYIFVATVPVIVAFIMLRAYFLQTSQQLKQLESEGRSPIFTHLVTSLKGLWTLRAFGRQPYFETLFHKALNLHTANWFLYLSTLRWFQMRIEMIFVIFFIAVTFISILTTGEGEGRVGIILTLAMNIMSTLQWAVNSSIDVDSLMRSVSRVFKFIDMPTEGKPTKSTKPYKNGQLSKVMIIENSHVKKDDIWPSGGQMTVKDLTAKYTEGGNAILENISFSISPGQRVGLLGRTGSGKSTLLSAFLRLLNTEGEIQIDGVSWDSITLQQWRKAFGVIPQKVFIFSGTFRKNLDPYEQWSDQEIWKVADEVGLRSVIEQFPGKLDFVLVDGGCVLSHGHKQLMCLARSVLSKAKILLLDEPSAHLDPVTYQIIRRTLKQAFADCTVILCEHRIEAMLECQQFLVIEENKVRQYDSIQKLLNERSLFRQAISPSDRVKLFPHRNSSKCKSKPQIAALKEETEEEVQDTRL

Take `COc1ccc(C2CCC2)cc1C1(C(=O)NS(=O)(=O)c2cccc3nc(C)ccc23)CC1` [Example I-63, 1-(5-cyclobutyl-2-methoxyphenyl)-N-(2-methylquinoline-5-sulfonyl)cyclopropane-1-carboxamide]: the EC50 reads like this: under setting [1], less than 3 µM; under setting [2], less than 3 µM. The “Maximum % activity (with co-corrector)” value (with co-corrector) is “+++ (≥350)”. For the same compound, the Emax (without co-corrector) was greater than 150%.
On to `COc1ccc(C2(C(=O)NS(=O)(=O)c3cccc4ncccc34)CC2)c(C)n1` [GIII-8], for which, under setting [3], the “EC50 (with co-corrector)” value is reported as “++^a”; the “Maximum % activity (with co-corrector)” value was “++ (≥150 and <350)”. For the same compound, under setting [4], the “EC50 (without co-corrector)” value was “++^a” and the Emax lay within 50 to 150%.
Turning to `Cc1ccc(OC2COC2)c(C2(C(=O)NS(=O)(=O)c3cccc4nc(N)ccc34)CC2)c1` [II-90], the EC50 was 3 to 10 µM under setting [1] and 3 to 10 µM under setting [2]. Besides, the “Maximum % activity (with co-corrector)” value (with co-corrector) is “+++ (≥350)”. For the same compound, where the note is “without co-corrector”, the Emax is greater than 150%.
For `COCCOc1ncc(OC)cc1C1(C(=O)NS(=O)(=O)c2cccc3ncccc23)CC1` [GII-44, 1-[5-methoxy-2-(2-methoxyethoxy)pyridin-3-yl]-N-(quinoline-5-sulfonyl)cyclopropane-1-carboxamide], under setting [3], the “EC50 (with co-corrector)” value is listed as “++^a”; the “Maximum % activity (with co-corrector)” value is “++ (≥150 and <350)”. Also, under setting [4], the “EC50 (without co-corrector)” value is reported as “++^a” and the Emax lay in the range of 50 to 150%.
As to `O=C(NS(=O)(=O)c1ccccc1)C1(c2ccc(Cl)cc2Cl)CC1` [Example III-3, N-(benzenesulfonyl)-1-(2,4-dichlorophenyl)cyclopropane-1-carboxamide], the concentration for a half-maximal effect (EC50) runs as follows: under setting [1], 3 to 10 µM; under setting [2], 3 to 10 µM. Further, under “with co-corrector”, the “Maximum % activity (with co-corrector)” value was “+++ (≥350)”. Where the note is “without co-corrector”, the Emax was 50 to 150%.
Regarding `CCc1cnc(OCCOC)c(C2(C(=O)NS(=O)(=O)c3cccc4[nH]ccc34)CC2)c1` [Example GI-109, 1-[5-ethyl-2-(2-methoxyethoxy)pyridin-3-yl]-N-(1H-indole-4-sulfonyl)cyclopropane-1-carboxamide], the “Maximum % activity (with co-corrector)” value under setting [3] is “+++ (≥350)”. The EC50 under setting [5] was less than 3 µM and the EC50 under setting [6] was in the range of 3 to 10 µM. Moreover, the Emax under setting [4] was greater than 150%.
The corresponding values for `CC(C)Oc1ncc(C2CC2)cc1C1(C(=O)NS(=O)(=O)c2cccc3[nH]ccc23)CC1` [Example GI-61, 1-{5-cyclopropyl-2-[(propan-2-yl)oxy]pyridin-3-yl}-N-(1H-indole-4-sulfonyl)cyclopropane-1-carboxamide] are “+++ (≥350)”, less than 3 µM, less than 3 µM and greater than 150%.
The corresponding values for `CCc1cnc(OCC(C)C)c(C2(C(=O)NS(=O)(=O)c3cccc4[nH]ccc34)CC2)c1` [Example GI-47, 1-[5-ethyl-2-(2-methylpropoxy)pyridin-3-yl]-N-(1H-indole-4-sulfonyl)cyclopropane-1-carboxamide] are “+++ (≥350)”, less than 3 µM, less than 3 µM and greater than 150%.
With `CN(C)c1ncc(C(F)(F)F)cc1C1(C(=O)NS(=O)(=O)c2cccc3ncccc23)CC1` [Example I-57, 1-[2-(dimethylamino)-5-(trifluoromethyl)pyridin-3-yl]-N-(quinoline-5-sulfonyl)cyclopropane-1-carboxamide], the 50% effective concentration (EC50) by setting is: under setting [1], less than 3 µM; under setting [2], less than 3 µM. The “Maximum % activity (with co-corrector)” value (with co-corrector) is recorded as “+++ (≥350)”. The Emax (without co-corrector) was greater than 150%.
Consider `O=C(NS(=O)(=O)c1cccc2c1CCCN2)C1(c2cc(OC(F)(F)F)ccc2Cl)CC1` [II-25], for which the EC50 runs as follows: under setting [1], 3 to 10 µM; under setting [2], less than 3 µM. Moreover, the “Maximum % activity (with co-corrector)” value (with co-corrector) is given as “+++ (≥350)”. Also, the Emax (without co-corrector) was greater than 150%.
For `COc1cc(C2(C(=O)NS(=O)(=O)c3cccc4nc(C)ccc34)CC2)c(OCC(C)C)cn1` [Example GI-20, 1-[2-methoxy-5-(2-methylpropoxy)pyridin-4-yl]-N-(2-methylquinoline-5-sulfonyl)cyclopropane-1-carboxamide], in that order: less than 3 µM, less than 3 µM, “+++ (≥350)” and greater than 150%.
On to `O=C(NS(=O)(=O)c1ccc(Cl)cc1)C1(c2cccc(Cl)c2)CC1` [Example III-10, N-(4-chlorobenzene-1-sulfonyl)-1-(3-chlorophenyl)cyclopropane-1-carboxamide], for which the EC50 by setting is: under setting [1], greater than 10 µM; under setting [2], greater than 10 µM. For the same compound, the “Maximum % activity (with co-corrector)” value (with co-corrector) is “+ (<150)”. The Emax (without co-corrector) was less than 50%.
For the compound `Cc1ccc2c(S(=O)(=O)NC(=O)C3(c4cc(N5CCCC5)cnc4OC(C)C)CC3)cccc2n1` [Example GI-63, N-(2-methylquinoline-5-sulfonyl)-1-{2-[(propan-2-yl)oxy]-5-(pyrrolidin-1-yl)pyridin-3-yl}cyclopropane-1-carboxamide], under setting [3], the “Maximum % activity (with co-corrector)” value is on record as “+++ (≥350)”. The EC50 is, setting by setting: under setting [5], less than 3 µM; under setting [6], less than 3 µM. For the same compound, the Emax under setting [4] was greater than 150%.
As for `COc1ccc2c(S(=O)(=O)NC(=O)C3(c4cc(C5CCC5)cnc4OCC(C)C)CC3)cccc2n1` [II-94], the EC50 is, setting by setting: under setting [1], less than 3 µM; under setting [2], less than 3 µM. The “Maximum % activity (with co-corrector)” value (with co-corrector) is “+++ (≥350)”. In addition, the Emax (without co-corrector) was greater than 150%.
On to `COc1ncc(C(F)(F)F)cc1C1(C(=O)NS(=O)(=O)c2cccc3ccn(C)c23)CC1` [II-17], for which the EC50 is, setting by setting: under setting [1], less than 3 µM; under setting [2], less than 3 µM. For the same compound, the “Maximum % activity (with co-corrector)” value (with co-corrector) was “+++ (≥350)”. Moreover, where the note is “without co-corrector”, the Emax was greater than 150%.
Turning to `COc1ccc(C)cc1C1(C(=O)NS(=O)(=O)c2cccc3[nH]ccc23)CC1` [Example I-49, N-(1H-indole-4-sulfonyl)-1-(2-methoxy-5-methylphenyl)cyclopropane-1-carboxamide], the EC50 under setting [1] is less than 3 µM and the EC50 under setting [2] was less than 3 µM. Besides, where the note is “with co-corrector”, the “Maximum % activity (with co-corrector)” value is given as “+++ (≥350)”. Besides, under “without co-corrector”, the Emax was greater than 150%.
Turning to `COc1ccc(C2CCC2)cc1C1(C(=O)NS(=O)(=O)c2cccc3nc(C)ccc23)CCC1` [Example I-33, 1-(5-cyclobutyl-2-methoxyphenyl)-N-(2-methylquinoline-5-sulfonyl)cyclobutane-1-carboxamide], the concentration for a half-maximal effect (EC50) was 3 to 10 µM under setting [1] and less than 3 µM under setting [2]. For the same compound, under “with co-corrector”, the “Maximum % activity (with co-corrector)” value is listed as “+++ (≥350)”. Besides, the Emax (without co-corrector) was greater than 150%.
On to `O=C(NS(=O)(=O)c1cccc2ncccc12)C1(c2ccc(C(F)(F)F)nc2N2CCCC2)CC1` [Example GI-15, 1-[2-(pyrrolidin-1-yl)-6-(trifluoromethyl)pyridin-3-yl]-N-(quinoline-5-sulfonyl)cyclopropane-1-carboxamide], for which the 50% effective concentration (EC50) under setting [1] was less than 3 µM and the 50% effective concentration (EC50) under setting [2] was less than 3 µM. Moreover, under “with co-corrector”, the “Maximum % activity (with co-corrector)” value is “+++ (≥350)”. Further, where the note is “without co-corrector”, the Emax was greater than 150%.
For `COc1ccc(C2CC2)c(C)c1C1(C(=O)NS(=O)(=O)c2cccc3ncccc23)CC1` [Example I-48, 1-(3-cyclopropyl-6-methoxy-2-methylphenyl)-N-(quinoline-5-sulfonyl)cyclopropane-1-carboxamide], the 50% effective concentration (EC50) is less than 3 µM under setting [1] and less than 3 µM under setting [2]. In addition, for the setting “with co-corrector”, the “Maximum % activity (with co-corrector)” value is listed as “+++ (≥350)”. The Emax (without co-corrector) is greater than 150%.
On to `CCc1ccc(O[C@@H]2CCOC2)c(C2(C(=O)NS(=O)(=O)c3cccc4ncccc34)CC2)c1` [Example I-118, 1-(5-ethyl-2-{[(3R)-oxolan-3-yl]oxy}phenyl)-N-(quinoline-5-sulfonyl)cyclopropane-1-carboxamide], for which the EC50 is less than 3 µM under setting [1] and less than 3 µM under setting [2]. Where the note is “with co-corrector”, the “Maximum % activity (with co-corrector)” value is given as “+++ (≥350)”. Besides, where the note is “without co-corrector”, the Emax is greater than 150%.
As to `COc1ccc(C(OC)C(F)(F)F)cc1C1(C(=O)NS(=O)(=O)c2cccc3ncccc23)CC1` (stereo not drawn) [II-86], the EC50 is 3 to 10 µM under setting [1] and less than 3 µM under setting [2]. Moreover, for the setting “with co-corrector”, the “Maximum % activity (with co-corrector)” value is on record as “+++ (≥350)”. In addition, where the note is “without co-corrector”, the Emax was greater than 150%.
In the case of `CCc1cnc(N2CCCC2)c(C2(C(=O)NS(=O)(=O)c3cccc4c3CCCN4)CC2)c1` [GII-35, 1-[5-ethyl-2-(pyrrolidin-1-yl)pyridin-3-yl]-N-(1,2,3,4-tetrahydroquinoline-5-sulfonyl)cyclopropane-1-carboxamide], the “Maximum % activity (with co-corrector)” value under setting [3] was “++ (≥150 and <350)”. The 50% effective concentration (EC50) is, setting by setting: under setting [5], 3 to 10 µM; under setting [6], 3 to 10 µM. Besides, under setting [4], the Emax is greater than 150%.
As to `CCc1ccncc1C1(C(=O)NS(=O)(=O)c2cccc3ncccc23)CC1` [GIII-6], the “Maximum % activity (with co-corrector)” value under setting [3] was “+ (<150)”. Further, the 50% effective concentration (EC50) is, setting by setting: under setting [5], greater than 10 µM; under setting [6], greater than 10 µM. In addition, the Emax under setting [4] was less than 50%.
In the case of `Cc1cnc(OC(C)C)c(C2(C(=O)NS(=O)(=O)c3cccc4[nH]ncc34)CC2)c1` [Example III-131, N-(1H-indazole-4-sulfonyl)-1-{5-methyl-2-[(propan-2-yl)oxy]pyridin-3-yl}cyclopropane-1-carboxamide], the EC50 is, setting by setting: under setting [1], 3 to 10 µM; under setting [2], 3 to 10 µM. In addition, the “Maximum % activity (with co-corrector)” value (with co-corrector) is listed as “+++ (≥350)”. Further, where the note is “without co-corrector”, the Emax was greater than 150%.

The values are drawn from US10829473B2, “Modulators of the cystic fibrosis transmembrane conductance regulator protein and methods of use” (AbbVie Overseas S.Á.R.L., priority 2017, dated 2020).
